In the Kinase Knowledgebase extract (Sharma et al. 2016) one finds IC50 data, which are given here for eleven compounds.

In this assay the target is CDK2 (human) (UniProt P24941). The assay is described as follows: Enzyme Assay.
As for `CC(=O)Nc1ccc(CN/C=C2\C(=O)NC(=O)c3ccc(Br)cc32)cc1O`, the IC50 (commonly the midpoint of a concentration-inhibition curve) came out at 50 µM.

In turn, `C=CCOc1ccc(CN/C=C2\C(=O)NC(=O)c3ccc(Br)cc32)cc1O` gave an IC50 of 29 µM.

Compound `O=C1NC(=O)c2ccc(-c3ccoc3)cc2/C1=C/NCc1ccc(OC(F)F)c(O)c1` yielded an IC50 of 50 µM.

As to `O=C1NC(=O)c2ccc(Br)cc2/C1=C/NCc1ccc(OCCO)c(O)c1`, the IC50 amounted to 50 µM.

`Cc1cccc(-c2ccc3c(c2)C(=CNCc2ccc(O)c(O)c2)C(=O)NC3=O)c1` displayed an IC50 of 50 µM.

As for `COc1cnc(CNC=C2C(=O)NC(=O)c3ccc(-n4cccc4)cc32)cc1O`, the IC50 is 2.4 µM.

The compound `CCCOc1ccc(CN/C=C2\C(=O)NC(=O)c3ccc(I)cc32)nc1O` registered a half-maximal inhibitory concentration (IC50) of 0.7 µM.

Consider `O=C1NC(=O)c2ccccc2/C1=C/Nc1ccc(CN2CCCCC2)cc1`, for which the IC50 turned out to be 23 µM. Against the preceding compound, the IC50 is about 33-fold higher.

On to `CC(C)(C)c1ccc2c(c1)C(=CNCc1cc(O)ccc1-c1ccoc1)C(=O)NC2=O`, for which the IC50 amounted to 13.1 µM.

In the case of `COc1ccc(CNC=C2C(=O)NC(=O)c3ccc(-c4ccc5ccccc5c4)cc32)cc1O`, the half-inhibitory concentration (IC50) was determined as 50 µM.

`CC(C)(C)c1ccc2c(c1)C(=CNCc1ccc(-c3ccoc3)c(O)c1)C(=O)NC2=O` came in with an IC50 of 13.1 µM.
